{
  "source": "patent US12440500B2",
  "about": "“Phytoecdysones and the derivatives thereof for use in the treatment of neuromuscular diseases” (BIOPHYTIS, priority 2019, dated 2025)",
  "type_in_all_cases": "in vivo, mouse",
  "key": {"[1]": {"system": "motor neurons of the lumbar spinal cord of SMA mice", "experiment": "Motor neuron count, location and soma surface (anti-ChAT immunofluorescence, lumbar spinal cord)", "description": "A quantitative and qualitative study of the populations of motor neurons on thick cross-sections of the lumbar region of the spinal cord (L1-L5) of healthy control mice or SMA treated with the vehicle or with BIO101 for 11 days was carried out via immunofluorescent labeling with Choline AcetylTransferase (ChAT) such as was described hereinabove (Biondi et al., 2008; Boyer et al., 2013). The analysis was then refined by a study of the different motor neuron sub-populations by characterizing their location in the spinal cord (lateral or medial position), as well as the distribution of the size of their soma.\nThe anesthetized mice underwent an intracardiac infusion with PBS. The spinal cords of the mice were taken, fixed then rinsed. The lumbar region of the spinal cords (L1-L5) was coated in a 4% solution of agarose. 50 μm cross-sections were made using a vibratome over the entire length of the sample. One section every 5 sections of spinal cord was then used for the immunohistochemical analyses. After a saturation with 0.1M glycine, the tissues were then permeabilized, blocked then marked with a goat polyclonal primary antibody anti-choline acetyltransferase (ChAT) ( 1/400^e). The sections are then washed then incubated with the anti-goat polyclonal secondary antibody coupled with Cyanine 3 (1:400^e). The cores are marked using Bisbenzimide ( 1/1,000^e) then the sections are washed again before being mounted with a photobleaching inhibitor of the fluorescent dyes. The specificity of the marking is verified thanks to a control marking carried out in the absence of the primary antibody.\nThe images were obtained using a camera mounted on a microscope with a magnification of ×200 and coupled to a central processing unit of the microcomputer type comprising in particular a suitable software for image acquisition. All of the counts were carried out using image processing software.\nThe quantitative analysis was then refined, on the one hand, by studying the different motor neuron sub-populations by analyzing their location in the spinal cord (lateral or medial position), and on the other hand, by studying the distribution of the surface of their soma."}, "[2]": {"system": "slow, intermediate and fast motor neurons of SMA mice", "experiment": "Motor neuron sub-populations (ChAT/ERRβ/MMP9 co-labeling, lumbar spinal cord)", "description": "In a manner complementary to the quantitative analysis of the number of motor neurons and of the size of their soma as well as the qualitative study concerning their location (medial or lateral in the ventral spinal cord), we studied the impact of the treatment by BIO101 on the protection of the sub-populations of motor neurons (slow motor neurons, intermediate motor neurons and fast motor neurons). This qualitative analysis of the sub-populations of motor neurons was carried out on thick cross-sections of the lumbar region of the spinal cord (L1-L5) of control or SMA mice treated or not with BIO101 by immunofluorescent labeling with Choline Acetyltransferase such as was described hereinabove (Biondi et al., 2008; Branchu et al., 2013) as well as an analysis of the type of motor neurons by immunofluorescence co-labeling with Estrogen-related receptor-β (ERRβ), a specific marker of the slow motor neurons, or with Matrix metallopeptidase 9 (MMP9), a specific marker of the fast motor neurons.\nThe anesthetized mice underwent an intracardiac infusion with PBS. The spinal cords of the mice were taken, fixed then rinsed. The lumbar region of the spinal cords (L1-L5) was coated in a 4% solution of agarose. 50 μm cross-sections were made using a vibratome over the entire length of the sample. One section every 5 sections of spinal cord was then used for the immunohistochemical analyses. […]"}, "[3]": {"system": "SMA mice", "experiment": "Open-field test (spontaneous displacement capacities)", "description": "Phenotypic analyses of type 2 severe SMA mice treated or not starting from P0 with BIO101 were conducted. Longitudinally every two days, a test was conducted of the motor capacities of the mice from P5 to P9. The inventors evaluated the spontaneous displacement capacities by the open-field test, as well as the muscular fatigability by grip test, such as described hereinabove (Biondi et al., 2008; Branchu et al., 2013; Chali et al., 2016). The device used for the open-field test is different according to the age of the mice. For animals from P0 to P6, it is formed of a 15×15×5 cm plastic box with a grid pattern of the field divided into 25 3 cm×3 cm squares. For animals from P7 to P21, it is formed of a 28×28×5 cm plastic box with a grid pattern of the field divided into 16 7 cm×7 cm squares. The mice were tested individually and the evaluation device was washed after each session. Each mouse initially placed at the center of the field was able to move about freely for 5 minutes. The behavioral measurements are recorded by the experimenter during these 5 minutes and the total number of squares crossed was recorded."}, "[4]": {"system": "muscles Soleus, Plantaris and Tibialis of SMA mice", "experiment": "Histological analysis of muscle cross-sections (Hematoxylin-Eosin): number and cross-section surface of muscle fibers", "description": "At P11, one hour after their last gavage, the treated mice were anaesthetized with pentobarbital 1% at 6 μL/g of mouse then the extensor muscles Soleus, with a mixed typology, extensor Plantaris, with a fast typology, and flexor Tibialis, with a fast typology, were sampled in order to conduct histological or molecular studies. After sampling, the muscles Soleus, Plantaris and Tibialis were included individually in a preservation medium then frozen in cooled isopentane. For each muscle, medial cross-sections 10 μm thick were realized. These sections were stained with Hematoxyline-Eosin, dehydrated and mounted in an inclusion medium. The images of these sections were taken with a microscope (with a magnification ×200). In order to obtain images with an impression of relief, the differential interference contrast technique was used. From these images, the number of muscle fibers of each muscle and the cross-section surface of 20% of these fibers were counted using image processing software (FIG. 2)."}},
  "data": [
    {"smiles": "CC(C)(O)CC[C@@H](O)[C@](C)(O)[C@H]1CC[C@@]2(O)C3=CC(=O)[C@@H]4C[C@@H](O)[C@@H](O)C[C@]4(C)[C@H]3CC[C@]12C", "note": "[BIO101, 20-hydroxyecdysone]", "values": [
      {"measurement": "loss of motor neurons in relation to healthy control mice", "setting": "[1]; 11 days of daily treatment (SMA vehicle 25%)", "result": 13, "unit": "%"},
      {"measurement": "number of motor neurons per section by semi-ventral spinal cord", "setting": "[1]; 11 days of daily treatment, versus SMA vehicle, p<0.05", "result": "significantly higher"},
      {"measurement": "effect on the medial motor neurons", "setting": "[1]; versus SMA vehicle", "result": "no significant effect"},
      {"measurement": "number of lateral motor neurons", "setting": "[1]; versus SMA vehicle", "result": "higher"},
      {"measurement": "number of small motor neurons with a soma surface less than 300 μm^2", "setting": "[1]; versus SMA vehicle, p<0.05", "result": "significantly limiting"},
      {"measurement": "number of fast motor neurons (ChAT+MMP9+)", "setting": "[2]; SMA mice treated P0 to P11 (SMA vehicle 11), p<0.05", "result": 14},
      {"measurement": "number of slow motor neurons (ChAT+ERRβ+)", "setting": "[2]; between healthy vehicle, SMA vehicle and SMA treated groups", "result": "does not vary significantly"},
      {"measurement": "number of squares crossed (open-field test)", "setting": "[3]; P5, SMA mice (vehicle 10)", "result": 11, "unit": "squares"},
      {"measurement": "number of squares crossed (open-field test)", "setting": "[3]; P7, SMA mice (vehicle 6), p<0.05", "result": 10, "unit": "squares"},
      {"measurement": "number of squares crossed (open-field test)", "setting": "[3]; P9, SMA mice (vehicle 8), p=ns", "result": 11, "unit": "squares"},
      {"measurement": "proportion of muscle fibers with cross-section surface greater than 300 μm^2", "setting": "[4]; Plantaris, FIG. 13B", "result": "increase"},
      {"measurement": "proportion of muscle fibers with cross-section surface less than 200 μm^2", "setting": "[4]; Plantaris, FIG. 13B", "result": "decrease"},
      {"measurement": "atrophy of the muscle fibers (cross-section surface) in relation to healthy control mice", "setting": "[4]; Plantaris, P11, SMA mice treated P0 to P11 (SMA vehicle 46%)", "result": 17.9, "unit": "%"},
      {"measurement": "proportion of fibers with cross-section surface between 0 and 100 μm^2", "setting": "[4]; Plantaris, versus SMA vehicle", "result": "decrease"},
      {"measurement": "proportion of fibers with cross-section surface between 200 and 400 μm^2", "setting": "[4]; Plantaris, versus SMA vehicle", "result": "increase"},
      {"measurement": "proportion of muscle fibers with cross-section surface greater than 300 μm^2", "setting": "[4]; Soleus, FIG. 13C", "result": "increase"},
      {"measurement": "proportion of muscle fibers with cross-section surface less than 200 μm^2", "setting": "[4]; Soleus, FIG. 13C", "result": "decrease"},
      {"measurement": "atrophy of the muscle fibers (cross-section surface) in relation to healthy control mice", "setting": "[4]; Soleus, P11, SMA mice treated P0 to P11 (SMA vehicle 50.2%)", "result": 37.8, "unit": "%"},
      {"measurement": "proportion of fibers with cross-section surface between 100 and 200 μm^2", "setting": "[4]; Soleus, versus SMA vehicle", "result": "decrease"},
      {"measurement": "proportion of fibers with cross-section surface between 200 and 400 μm^2", "setting": "[4]; Soleus, versus SMA vehicle", "result": "increase"},
      {"measurement": "atrophy of the muscle fibers (cross-section surface) in relation to healthy control mice", "setting": "[4]; Tibialis, P11, SMA mice treated P0 to P11 (SMA vehicle 56.1%)", "result": 32.7, "unit": "%"},
      {"measurement": "number of muscle fibers", "setting": "[4]; Tibialis, SMA mice treated P0 to P11, 50 mg/kg", "result": "2,358 fibers"},
      {"measurement": "increase in number of muscle fibers compared to vehicle", "setting": "[4]; Tibialis, SMA mice treated P0 to P11, p<0.05", "result": 14, "unit": "%"},
      {"measurement": "proportion of fibers with cross-section surface between 400 and 800 μm^2", "setting": "[4]; Tibialis, versus SMA vehicle", "result": "significant increase"},
      {"measurement": "proportion of fibers with cross-section surface between 100 and 200 μm^2", "setting": "[4]; Tibialis, versus SMA vehicle, p<0.05", "result": "decreases significantly"}
    ]}
  ]
}
